From PubChem BioAssay (NCI)
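All cell lines were grown in 96-well plates and treated with compound for 48 hours. Definition used: TGI = concentration required for complete inhibition of growth.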

How the values were obtained:
Assay in all cases: growth of human tumour cells (NCI), 48 h
786-0 renal = tested on: 786-0 renal
HOP-62 NSCLC = tested on: HOP-62 NSCLC
SW-620 colon = tested on: SW-620 colon
SN12C renal = tested on: SN12C renal
PC-3 prostate = tested on: PC-3 prostate
MDA-MB-435 = tested on: MDA-MB-435
COLO 205 colon = tested on: COLO 205 colon
CCRF-CEM leukemia = tested on: CCRF-CEM leukemia
TK-10 renal = tested on: TK-10 renal
HS 578T breast = tested on: HS 578T breast
HCC-2998 colon = tested on: HCC-2998 colon
BT-549 breast = tested on: BT-549 breast
UACC-257 melanoma = tested on: UACC-257 melanoma
ACHN renal = tested on: ACHN renal
MDA-MB-231 breast = tested on: MDA-MB-231 breast
KM12 colon = tested on: KM12 colon
HL-60(TB) leukemia = tested on: HL-60(TB) leukemia
CAKI-1 renal = tested on: CAKI-1 renal
SK-MEL-2 melanoma = tested on: SK-MEL-2 melanoma
HOP-92 NSCLC = tested on: HOP-92 NSCLC
HCT-116 colon = tested on: HCT-116 colon
A549 NSCLC = tested on: A549 NSCLC
SF-268 CNS = tested on: SF-268 CNS
K-562 leukemia = tested on: K-562 leukemia
RXF 393 renal = tested on: RXF 393 renal
DU-145 prostate = tested on: DU-145 prostate
OVCAR-8 ovarian = tested on: OVCAR-8 ovarian
SK-MEL-5 melanoma = tested on: SK-MEL-5 melanoma
NCI-H226 lung = tested on: NCI-H226 lung
UO-31 renal = tested on: UO-31 renal
T-47D breast = tested on: T-47D breast
NCI/ADR-RES ovarian = tested on: NCI/ADR-RES ovarian
UACC-62 melanoma = tested on: UACC-62 melanoma
SK-MEL-28 melanoma = tested on: SK-MEL-28 melanoma
HT29 colon = tested on: HT29 colon
IGROV1 ovarian = tested on: IGROV1 ovarian
EKVX NSCLC = tested on: EKVX NSCLC
MOLT-4 leukemia = tested on: MOLT-4 leukemia
SF-539 CNS = tested on: SF-539 CNS
SF-295 CNS = tested on: SF-295 CNS
LOX IMVI melanoma = tested on: LOX IMVI melanoma
SNB-75 CNS = tested on: SNB-75 CNS
M14 melanoma = tested on: M14 melanoma
OVCAR-5 ovarian = tested on: OVCAR-5 ovarian
SK-OV-3 ovarian = tested on: SK-OV-3 ovarian
NCI-H522 lung = tested on: NCI-H522 lung
SR leukemia = tested on: SR leukemia
OVCAR-3 ovarian = tested on: OVCAR-3 ovarian
HCT-15 colon = tested on: HCT-15 colon
MCF7 breast = tested on: MCF7 breast
MALME-3M melanoma = tested on: MALME-3M melanoma
NCI-H460 lung = tested on: NCI-H460 lung
MDA-N = tested on: MDA-N
A498 renal = tested on: A498 renal
RPMI-8226 leukemia = tested on: RPMI-8226 leukemia
SNB-19 CNS = tested on: SNB-19 CNS
U251 CNS = tested on: U251 CNS
NCI-H23 lung = tested on: NCI-H23 lung
OVCAR-4 ovarian = tested on: OVCAR-4 ovarian

With `Cc1nc2c(O)c3c(c(O)c2nc1C)C1C=CC3CC1` the TGI (786-0 renal) was 27.6 µM, the TGI (HOP-62 NSCLC) was 36.4 µM and the TGI (SW-620 colon) was 30.3 µM. The TGI (SN12C renal) was 27.4 µM, the TGI (PC-3 prostate) was 35.9 µM and the TGI (MDA-MB-435) was 6.2 µM. It also gave a TGI (COLO 205 colon) of 38.4 µM, a TGI (CCRF-CEM leukemia) of 3.53 µM and a TGI (TK-10 renal) of 40.8 µM. The TGI (HS 578T breast) was 78.3 µM, the TGI (HCC-2998 colon) was over 59.2 µM and the TGI (BT-549 breast) was 30.4 µM. For the same compound, the TGI (UACC-257 melanoma) was 18.2 µM, the TGI (ACHN renal) was 28.5 µM and the TGI (MDA-MB-231 breast) was 10.1 µM. For the same compound, the TGI (KM12 colon) was 31.5 µM, the TGI (HL-60(TB) leukemia) was 2.66 µM and the TGI (CAKI-1 renal) was 14.9 µM. For the same compound, the TGI (SK-MEL-2 melanoma) was 33 µM, the TGI (HOP-92 NSCLC) was 7.75 µM and the TGI (HCT-116 colon) was 17.3 µM. It also gave a TGI (A549 NSCLC) of 63.5 µM, a TGI (SF-268 CNS) of 32.9 µM and a TGI (K-562 leukemia) of 4.31 µM. The TGI (RXF 393 renal) was 22.6 µM, the TGI (DU-145 prostate) was over 100 µM and the TGI (OVCAR-8 ovarian) was 20.9 µM. The TGI (SK-MEL-5 melanoma) was 27.7 µM, the TGI (NCI-H226 lung) was 56.2 µM and the TGI (UO-31 renal) was 24.8 µM. For the same compound, the TGI (T-47D breast) was 7 µM, the TGI (NCI/ADR-RES ovarian) was 18.5 µM and the TGI (UACC-62 melanoma) was 67.2 µM. The TGI (SK-MEL-28 melanoma) was 30.8 µM, the TGI (HT29 colon) was 55.9 µM and the TGI (IGROV1 ovarian) was 17.9 µM. The TGI (EKVX NSCLC) was 24.6 µM, the TGI (MOLT-4 leukemia) was 2.9 µM and the TGI (SF-539 CNS) was 22 µM. The TGI (SF-295 CNS) was 47.2 µM, the TGI (LOX IMVI melanoma) was 9.95 µM and the TGI (SNB-75 CNS) was over 92.6 µM. For the same compound, the TGI (M14 melanoma) was 29.4 µM, the TGI (OVCAR-5 ovarian) was 34.9 µM and the TGI (SK-OV-3 ovarian) was 55.2 µM. It also gave a TGI (NCI-H522 lung) of 37.5 µM, a TGI (SR leukemia) of over 90.8 µM and a TGI (OVCAR-3 ovarian) of 21.2 µM. It also gave a TGI (HCT-15 colon) of 34.8 µM, a TGI (MCF7 breast) of 25.4 µM and a TGI (MALME-3M melanoma) of 26.1 µM. It also gave a TGI (NCI-H460 lung) of over 72.6 µM, a TGI (MDA-N) of 7.37 µM and a TGI (A498 renal) of 81.5 µM. It also gave a TGI (RPMI-8226 leukemia) of 15.4 µM, a TGI (SNB-19 CNS) of over 100 µM and a TGI (U251 CNS) of 21.6 µM. The TGI (NCI-H23 lung) was 26.5 µM and the TGI (OVCAR-4 ovarian) was 6.22 µM.
In the case of `CSc1ccc(NC(=O)Nc2cc(C)ccn2)cc1`, the TGI (786-0 renal) is reported as over 100 µM, the TGI (HOP-62 NSCLC) is reported as over 100 µM and the TGI (SW-620 colon) is reported as over 100 µM. The TGI (SN12C renal) was over 100 µM, the TGI (PC-3 prostate) was over 100 µM and the TGI (MDA-MB-435) was over 100 µM. The TGI (COLO 205 colon) was over 100 µM, the TGI (CCRF-CEM leukemia) was over 100 µM and the TGI (TK-10 renal) was over 100 µM. It also gave a TGI (HS 578T breast) of over 100 µM, a TGI (HCC-2998 colon) of over 100 µM and a TGI (BT-549 breast) of over 100 µM. The TGI (UACC-257 melanoma) was over 100 µM, the TGI (ACHN renal) was over 100 µM and the TGI (MDA-MB-231 breast) was over 100 µM. For the same compound, the TGI (KM12 colon) was over 100 µM, the TGI (HL-60(TB) leukemia) was over 100 µM and the TGI (CAKI-1 renal) was over 100 µM. For the same compound, the TGI (SK-MEL-2 melanoma) was over 100 µM, the TGI (HOP-92 NSCLC) was over 100 µM and the TGI (HCT-116 colon) was over 100 µM. The TGI (A549 NSCLC) was over 100 µM, the TGI (SF-268 CNS) was over 100 µM and the TGI (K-562 leukemia) was over 100 µM. The TGI (RXF 393 renal) was over 100 µM, the TGI (DU-145 prostate) was over 100 µM and the TGI (OVCAR-8 ovarian) was over 100 µM. For the same compound, the TGI (SK-MEL-5 melanoma) was over 100 µM, the TGI (NCI-H226 lung) was over 100 µM and the TGI (UO-31 renal) was over 100 µM. The TGI (T-47D breast) was over 100 µM, the TGI (NCI/ADR-RES ovarian) was over 100 µM and the TGI (UACC-62 melanoma) was over 100 µM. The TGI (SK-MEL-28 melanoma) was over 100 µM, the TGI (HT29 colon) was over 100 µM and the TGI (IGROV1 ovarian) was over 100 µM. For the same compound, the TGI (EKVX NSCLC) was over 100 µM, the TGI (MOLT-4 leukemia) was over 100 µM and the TGI (SF-539 CNS) was over 100 µM. For the same compound, the TGI (SF-295 CNS) was over 100 µM, the TGI (LOX IMVI melanoma) was over 100 µM and the TGI (SNB-75 CNS) was over 100 µM. It also gave a TGI (M14 melanoma) of over 100 µM, a TGI (OVCAR-5 ovarian) of over 100 µM and a TGI (SK-OV-3 ovarian) of over 100 µM. It also gave a TGI (NCI-H522 lung) of over 100 µM, a TGI (SR leukemia) of over 100 µM and a TGI (OVCAR-3 ovarian) of over 100 µM. The TGI (HCT-15 colon) was over 100 µM, the TGI (MCF7 breast) was over 100 µM and the TGI (MALME-3M melanoma) was over 100 µM. The TGI (NCI-H460 lung) was over 100 µM, the TGI (MDA-N) was over 100 µM and the TGI (A498 renal) was over 100 µM. The TGI (RPMI-8226 leukemia) was over 100 µM, the TGI (SNB-19 CNS) was over 100 µM and the TGI (U251 CNS) was over 100 µM. It also gave a TGI (NCI-H23 lung) of over 100 µM and a TGI (OVCAR-4 ovarian) of over 100 µM.
